Source: patent US11987579B2 (Duke University, priority 2018, dated 2024)
Where two headings read alike, the source gives them in different places.

Assays:
HT-29 = experiment: Inhibition of cell proliferation by MTS assay, HT-29; assay type: cell-based; details: Homo sapiens; HT-29, MTS assay at 72 hr
Procedure: (§1) Colon cancer cell lines SW948, HT-29, HCT116, CRC240, SW480, and DLD-1 were used in the cell proliferation assay. All cell lines, except CRC240, were from ATCC. CRC240, a colorectal cancer patient derived xenograft (PDX) cell line, was obtained from the Hsu lab (Duke University). Generation of CRC240 cell line was previously reported. SW948 cells were cultured in Leibovitz's medium (Gibco, catalog number 21083-027). HT-29 and HCT116 cells were cultured in McCoy's 5A medium (Gibco, catalog number 16600-082). SW480 cells were cultured in MEM medium. CRC240 and DLD-1 cells were cultured in RPMI medium (Gibco, catalog number 11875-093). All media were supplemented with 10% FBS and 100 U/ml penicillin-streptomycin. […] IC50 values calculated using Graphpad Prism.

SW480 = experiment: Inhibition of cell proliferation by MTS assay, SW480; assay type: cell-based; details: Homo sapiens; SW480, MTS assay at 72 hr
Procedure: as §1

[1] = Pharmacokinetic analysis of DK419 in mouse plasma after oral dose; assay type: in vivo, NOD/SCID mice; details: mice; for Cmax: read-out: Cmax (second line)
Procedure: DK419 was dissolved in 10% N-Methyl pyrrolidinone (Sigma, catalog number 328634) and 90% PEG300 (Sigma, catalog number 20237) at 0.2 mg/mL, and dosed orally to NOD/SCID mice (n=4) at 1 mg/kg. Blood samples (20 μL) were collected serially from tail vein into vials containing 1 μL of 1000 U/mL heparin at the following time-points: pre-dose, 0.25, 0.5, 1, 2, 4, 8, 24, 48, and 72 h after drug administration. After centrifugation at 1300 g for 5 min at room temperature, plasma was separated and stored at −80° C. until the analysis.
Quantification of DK419 in mouse plasma was started by vigorous agitation of 4 μL sample, 10 μL of 20 ng/mL DK4-106-3 (in-house made internal standard analog), 20 μL of water, and 100 μL of ethyl-acetate. After centrifugation at 16,000 g for 5 min at room temperature, 80 μL of organic (upper) layer was dried under nitrogen stream, residue reconstituted with a mixture of 50% mobile phase A (10 mM ammonium acetate, 0.1% formic acid) and 50% mobile phase B (methanol), and 5 μL injected into LC/MS/MS system. Analysis was performed on Shimadzu series 20A LC/Applied Biosystems/SCIEX API 4000 QTrap MS/MS instrument. Column: Agilent Eclipse 4.6×50 ram, 1.8 μm at 50° C. Elution gradient: 0-2 min 50-90% B, 2-2.5 min 90% B, 2.5-2.7 min, 90-50% B; flow […]. MS/MS transitions followed: 405.8/218.9 (DK419) and 331.8/311.8 (DK4-106-3; int. std.). Run time: 5 min. Calibration samples were prepared by adding pure DK419 to pooled mouse plasma in 2.4 ng/mL (LLOQ)-1000 ng/mL range and analyzed alongside the PK study samples. The calibration curve was linear (r=0.999).

CCD841Co colonic cells = experiment: Assessment of oxygen consumption rate (OCR), Seahorse XFp; assay type: cell-based; details: 1 μM, CCD841Co cells, basal conditions, vs DMSO
Procedure: Colonic epithelial CCD841Co cells were plated in Seahorse XFp 8-well miniplates at 8000 cells/well and allowed to attach overnight at 37° C. in a 5% CO2 incubator. Polarographic analysis of OCR was performed using Seahorse XF Analyzer (Agilent Technologies, Santa Clara, Calif.) and a Seahorse XFp Cell Mito Stress Test Kit (Agilent Technologies, catalog number 103010-100). […] Data were analyzed by the software Wave (Version 2.3.0.20, Agilent Technologies, Santa Clara, Calif.).

SW948 = experiment: Inhibition of cell proliferation by MTS assay, SW948; assay type: cell-based; details: Homo sapiens; SW948, MTS assay at 72 hr
Procedure: as §1

six CRC tumor cell lines = experiment: MTS assay, summary over six CRC tumor cell lines; assay type: cell-based; details: read-out: IC50 values, range over the six CRC cell lines
Procedure: as §1

pAMPK = experiment: Evaluation of phospho-AMPK levels by Western blot; assay type: cell-based; details: CCD841Co cells, whole cell lysate, vs DMSO control
Procedure: 12-well plates were incubated with 250 μL poly-D-lysine solution (Sigma, catalog number P6407) at 10 μg/mL for 30 minutes at room, temperature, the poly-D-lysine solution was removed, and the wells washed twice with 500 μL distilled water. Colonic epithelial CCD841Co cells were cultured in MEM medium plus 1 mM sodium pyruvate (Invitrogen, catalog number 11360070), lx MEM Non-Essential Amino Acids (Gibco catalog number 11140), 10% FBS, and 100 U/ml penicillinstreptomycin. 0.27 million CCD841Co cells per well were plated in culture medium in the poly-Dlysine coated 12-well plates and allowed to attach overnight at 37° C. in a 5% CO2 incubator. The next morning, the media was replaced with DMSO vehicle in cell media, DK419 or niclosamidein DMSO diluted to the indicated concentration with DMEM medium (Sigma, catalog number D5030) supplemented with 2 mM sodium pyruvate and 2 mM L-glutamine (Invitrogen, catalog number 25030081). […] After 30 minutes treatment, the media was removed and the cells were lysed with 120 μL 1×Laemmii sample buffer. Immunoblots of the cell lysates using antibodies to phospho-AMPK (pAMPK) (Cell Signaling Technology, catalog number 2535) and AMPK (Cell Signaling Technology, catalog number 2532) was used to detect phosphorylated AMPK ([…]) levels and total AMPK levels, respectively. Antibodies to β-actin were used as loading controls.

[2] = niclosamide 200 mg/kg oral, mice, non-compartmental, cited from earlier work
HCT116 cells = details: 0.5 and 1.5 μM; cited from earlier work
[3] = DK419 1 mg/kg oral, compartmental
[4] = DK419 1 mg/kg oral, non-compartmental

## O=C(Nc1ccc(C(F)(F)F)cc1)c1cc(Cl)cc2nc(C(F)(F)F)[nH]c12 [DK419, 6-chloro-2-(trifluoromethyl)-N-(4-(trifluoromethyl)phenyl)-1H-benzo[d]imidazole-4-carboxamide]
HT-29
  IC50: 0.11 µM
SW480
  IC50: 0.32 µM
[1]; [3]
  AUCinf: 16300 ng·h/mL (per kg BW)
  AUCinf/DOSE: 16.3 µg·h/mL (per mg)
  t1/2-absorption: 2.0 h
  t1/2-elimination: 10.8 h
  Cmax: 1790 nM
[1]; DK419 1 mg/kg oral, compartmental, 1st order extrav. input, 1st order elimination
  Tmax: 5.85 h
[1]; [4]
  AUCinf: 16900 ng·h/mL (per kg BW)
  AUCinf/DOSE: 16.9 µg·h/mL (per mg)
  CL/F: 0.06 L/h (per kg BW)
  MRT: 15.8 h
  t1/2-elimination: 9.2 h
  Cmax: 1840 nM
[1]; DK419 1 mg/kg oral, non-compartmental extravascular input
  Tmax: 4.5 h
[1]; DK419 1 mg/kg oral, non-compartmental, 0-72 h
  AUC0-LAST: 16800 ng·h/mL (per kg BW)
[1]; NOD/SCID, mouse, plasma, DK419 1 mg/kg oral, compartmental, read-out: CL/F (converted)
  CL/F: 1 mL/min/kg
[1]; single 1 mg/kg oral dose
  time for which plasma levels were sustained: more than 24 hours
[1]; single 1 mg/kg oral dose, 24 hours
  plasma concentration at 24 hours relative to its IC50 in the TOPFlash and MTS assays: 3 fold
CCD841Co colonic cells
  oxygen consumption rate: increases the rate of oxygen consumption
SW948
  IC50: 0.04 µM
Six CRC tumor cell lines
  IC50: 0.04 to 0.35 µM
pAMPK
  pAMPK levels by Western blot: increased the levels of pAMPK

## O=C(Nc1ccc([N+](=O)[O-])cc1Cl)c1cc(Cl)ccc1O [Niclosamide, reference compound]
HT-29
  IC50: 0.1 µM
SW480
  IC50: 0.74 µM
[2]; 0-24 h
  AUC0-LAST: 1010 ng·h/mL (per kg BW)
[2]
  AUCinf: 1020 ng·h/mL (per kg BW)
  MRT: 6.8 h
[2]; read-out: Cmax (second line)
  Cmax: 2730 nM
HCT116 cells
  oxygen consumption rate in HCT116 cells: caused oxygen consumption rate to increase
CCD841Co colonic cells
  oxygen consumption rate: increases the oxygen consumption rate
SW948
  IC50: 0.1 µM
Six CRC tumor cell lines
  IC50: 0.1 to 1.78 µM
pAMPK
  pAMPK levels by Western blot: increased pAMPK levels
